Structures can show the parent of a compound that is named as a salt. Where two headings read alike, the source gives them in different places.
How the values were obtained:
[1] = in vivo; parameters: species or system Male Beagle dogs; conditions: dog, po, 50 mg/kg
Protocol: (§1) Male Beagle dogs were fasted overnight and were divided into 4 groups of 4 animals each. The four groups were treated orally with different NAC solutions according to the following scheme: […] For each group of animals the dose of NAC ([…]) contained an amount of ^14 C-NAC equal to 20 μCi/kg. Blood samples were withdrawn by a heparinized syringe just before the treatment and 10, 20, 30, 45, 60, 120, 240, 360, 480 and 1,440 minutes after treatment. The blood samples were treated and stored according to the same procedure described in Example 1.

[2] = parameters: species or system Male Beagle dogs; conditions: dog, in vivo, po, 50 mg/kg
Protocol: as §1

[3] = THAM salt; result in words; cited from earlier work
[4] = result in words; cited from earlier work
[5] = Total radioactivity in plasma after oral 3H-NAC in rats; format: in vivo, Sprague Dawley rats; conditions: rat, 300 mg/kg NAC (100 μCi/kg 3H-NAC), 0-24 h
Protocol: Sprague Dawley rats after overnight fast were divided into 7 groups of 33 animals each. These seven groups of animals were treated with different NAC solutions by oral route according to the following scheme:
Group 1-NAC (300 mg/kg) dissolved in water (10 ml/kg)
Group 5-NAC (300 mg/kg) and THAM (222.7 mg/kg) dissolved in water (10 ml/kg); molar ratio 1:1
For each group of animals the NAC dose (300 mg/kg) contained ^3 H-NAC in an amount yielding 100 μCi/kg. Blood samples were withdrawn just before the treatment and 15, 20, 45, 60, 90, 120, 240, 360, 480 and 1,440 minutes after treatment, via a heparinized syringe. The blood was immediately transferred into plastic tubes containing sodium dithionite (1 mg/5 μl) and 0.02N sodium EDTA (200 μl ). The plasma was separated by centrifugation at 5,000×g at 4° C. for 20 minutes and the samples thus obtained were stored at -20° C. until the analysis.
Samples of plasma (50 μl) were added to Lumagel (10 ml), were stirred and were then allowed to stand in the scintillation counter (Beckman LS 8100) at 15° C. for 4 hours. Radioactivity was measured after the stabilization time.
The total radioactivity in plasma after administration of 300 mg/kg of NAC (containing 100 μCi/kg of ^3 H-NAC) (group 1) and after administration of the same amount of NAC with THAM in the ratio 1:1 (group 5) are reported in Table 2.

[6] = Plasma level of unmodified NAC after oral administration of NAC solutions to rats (GC-MS); format: in vivo, Sprague Dawley rats; conditions: rat, 300 mg/kg NAC (100 μCi/kg 3H-NAC), 0-8 h, * p < 0.005 (Student's t) for NAC-THAM 1:1, read-out: AUC0-8 h, plasma NAC (total unmodified NAC)
Protocol: Sprague Dawley rats after overnight fast were divided into 7 groups of 33 animals each. These seven groups of animals were treated with different NAC solutions by oral route according to the following scheme: […] Blood samples were withdrawn just before the treatment and 15, 20, 45, 60, 90, 120, 240, 360, 480 and 1,440 minutes after treatment, via a heparinized syringe. The blood was immediately transferred into plastic tubes containing sodium dithionite (1 mg/5 μl) and 0.02N sodium EDTA (200 μl ). The plasma was separated by centrifugation at 5,000×g at 4° C. for 20 minutes and the samples thus obtained were stored at -20° C. until the analysis. […] The samples were kept at 37° C. for one hour and then an acetone:formic acid=4:1 (1 ml) mixture was added. The proteins were separated at 20,000×g for 20 minutes by centrifugation. To the supernatant 2M HCl (200 μl) was added and then the NAC was extracted twice with ethyl acetate (6 ml). […] At the end of the reaction, excess isopropanol was eliminated and the samples were reacted with 3:1 ethyl acetate:pentafluoropropionic anhydride (200 μl) at 60° C. for 30 minutes. […] In Table 1 the plasma concentrations of NAC, expressed as AUC0-8h, the total NAC detected expressed as g/l, are reported for each group of animals and treatment regimen.

With `CC(=O)N[C@@H](CS)C(=O)O` [NAC-lysinate, NAC lysinate] the “AUC0-.infin., plasma NAC (unmodified)” value [1] was 73.37 ± 10.33 mgh/l, the “amount of unmodified NAC in plasma compared with NAC alone” value [1] was “do not provide plasma levels meaningfully different from those of NAC itself” and the “total amount of absorbed NAC compared with NAC as such” value [2] was “not different”. The “AUC0-24 h, total radioactivity in plasma” value [2] was 1247.23 ± 185.18 mghl^-1.

For `C[C@@H]1O[C@@H]1P(=O)(O)O` [THAM salt of the antibiotic Fosfomycin], the bioavailability [3] is given as “better bioavailability”.

For `CC(=O)N[C@@H](CS)C(=O)O` [NAC, N-acetylcysteine], the AUC(0-inf) ([1]; AUC0-.infin., plasma NAC (unmodified)) is given as 57500 ± 7290 ng·h/mL, the “AUC0-24 h, total radioactivity in plasma” value [2] is given as 1864.13 ± 856.57 mghl^-1 and the solubility [4] is given as “soluble”. The “AUC0-24 h, total radioactivity in plasma” value [5] was 4048.3 ± 105.9 mgh/l and the AUC(0-t) at 8 h [6] was 105000 ± 3000 ng·h/mL.
